From patent US11279687B2, “Compounds and compositions for the inhibition of NAMPT” (Valo Health, Inc., priority 2010, dated 2022)
Read-outs that look alike come from different tables or passages of the source.

Assays:
NAMPT = NAMPT (Homo sapiens (Human), UniProt P43490); experiment: NAMPT biochemical inhibition assay (NMN quantified by mass spectrometry); conditions: NAMPT biochemical inhibition; read-out: Biochem IC50
A2780 cells = experiment: In-vitro cell proliferation assay (SRB), A2780 cells; type: cell-based; conditions: A2780 cells, 72 hours, SRB, read-out: A2780 IC50;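 note: viable cell number read as SRB absorbance, background from media-only wells subtracted, IC50 interpolated from percent inhibition at two bracketing compound concentrations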

NAMPT, sequence (P43490 whole entry): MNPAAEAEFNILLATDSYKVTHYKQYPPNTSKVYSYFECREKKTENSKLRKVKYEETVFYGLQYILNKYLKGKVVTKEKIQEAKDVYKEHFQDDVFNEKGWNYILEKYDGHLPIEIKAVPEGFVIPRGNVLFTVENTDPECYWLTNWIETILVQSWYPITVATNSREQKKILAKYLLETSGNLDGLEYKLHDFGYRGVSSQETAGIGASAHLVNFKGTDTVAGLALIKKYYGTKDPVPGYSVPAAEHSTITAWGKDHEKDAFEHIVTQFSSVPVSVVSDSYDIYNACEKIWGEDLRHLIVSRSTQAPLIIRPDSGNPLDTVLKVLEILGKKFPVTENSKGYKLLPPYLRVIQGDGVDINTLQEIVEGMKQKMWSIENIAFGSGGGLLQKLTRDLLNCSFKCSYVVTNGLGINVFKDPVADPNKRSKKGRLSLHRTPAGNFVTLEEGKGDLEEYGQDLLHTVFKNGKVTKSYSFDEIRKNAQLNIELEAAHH

| Compound | IC50 (NAMPT) | IC50 (A2780 cells; Homo sapiens, A2780, 72 h) | IC50 (A2780 cells) |
| --- | --- | --- | --- |
| CCc1ccc(S(=O)(=O)c2ccc(NC(=O)NCc3cccnc3)cc2)cc1 [3-{4-[(4-ethylbenzene)sulfonyl]phenyl}-1-(pyridin-3-ylmethyl)urea] | 3 nM | 533 nM |  |
| COc1cc(F)ccc1S(=O)(=O)c1ccc(NC(=O)NCc2cccnc2)cc1 [3-{4-[(4-fluoro-2-methoxybenzene)sulfonyl]phenyl}-1-(pyridin-3-ylmethyl)urea] | 2 nM | 28.2 nM |  |
| COc1cc(F)ccc1NS(=O)(=O)c1ccc(NC(=O)NCc2cccnc2)cc1 [3-{4-[(4-fluoro-2-methoxyphenyl)sulfamoyl]phenyl}-1-(pyridin-3-ylmethyl)urea] | 7 nM | 116 nM |  |
| Cc1cc(F)ccc1S(=O)(=O)c1ccc(NC(=O)NCc2cccnc2)cc1 [3-{4-[(4-fluoro-2-methylbenzene)sulfonyl]phenyl}-1-(pyridin-3-ylmethyl)urea] | 5 nM | 287 nM |  |
| COc1cc(S(=O)(=O)c2ccc(NC(=O)NCc3cccnc3)cc2)ccc1F [3-{4-[(4-fluoro-3-methoxybenzene)sulfonyl]phenyl}-1-(pyridin-3-ylmethyl)urea] | 3.7 nM | 44.6 nM |  |
| Cc1cc(S(=O)(=O)c2ccc(NC(=O)NCc3cccnc3)cc2)ccc1F [3-{4-[(4-fluoro-3-methylbenzene)sulfonyl]phenyl}-1-(pyridin-3-ylmethyl)urea] | 3.7 nM | 100 to 1000 nM |  |
| CS(=O)(=O)c1ccc(S(=O)(=O)c2ccc(NC(=O)NCc3cccnc3)cc2)cc1 [3-{4-[(4-methanesulfonylbenzene)sulfonyl]phenyl}-1-(pyridin-3-ylmethyl)urea] | 2 nM | 91 nM |  |
| COc1ccc(S(=O)(=O)c2ccc(NC(=O)NCc3cccnc3)cc2)c(C)c1 [3-{4-[(4-methoxy-2-methylbenzene)sulfonyl]phenyl}-1-(pyridin-3-ylmethyl)urea] | 8 nM | 352 nM |  |
| COc1c(C)cc(S(=O)(=O)c2ccc(NC(=O)NCc3cccnc3)cc2)cc1C [3-{4-[(4-methoxy-3,5-dimethylbenzene)sulfonyl]phenyl}-1-(pyridin-3-ylmethyl)urea] | 2.1 nM | 8.9 nM |  |
| COc1ccc(S(=O)(=O)c2ccc(NC(=O)NCc3cccnc3)cc2)cc1 [3-{4-[(4-methoxybenzene)sulfonyl]phenyl}-1-(pyridin-3-ylmethyl)urea] | 2.4 nM | 100 to 1000 nM |  |
| Cc1ccc(S(=O)(=O)c2ccc(NC(=O)NCc3cccnc3)cc2)cc1 [3-{4-[(4-methylbenzene)sulfonyl]phenyl}-1-(pyridin-3-ylmethyl)urea] | 4.33 nM | 141 nM |  |
| CC(C)(C)c1ccc(NS(=O)(=O)c2ccc(NC(=O)NCc3cccnc3)cc2)c(Cl)c1 [3-{4-[(4-tert-butyl-2-chlorophenyl)sulfamoyl]phenyl}-1-(pyridin-3-ylmethyl)urea] | 1.4 nM | 97 nM |  |
| COc1ccc(C(C)=O)cc1S(=O)(=O)c1ccc(NC(=O)NCc2cccnc2)cc1 [3-{4-[(5-acetyl-2-methoxybenzene)sulfonyl]phenyl}-1-(pyridin-3-ylmethyl)urea] | 1.3 nM | 1.7 nM |  |
| COc1ccc(Cl)cc1S(=O)(=O)c1ccc(NC(=O)NCc2cccnc2)cc1 [3-{4-[(5-chloro-2-methoxybenzene)sulfonyl]phenyl}-1-(pyridin-3-ylmethyl)urea] | 5 nM | 21 nM |  |
| Cc1ccc(Cl)cc1NS(=O)(=O)c1ccc(NC(=O)NCc2cccnc2)cc1 [3-{4-[(5-chloro-2-methylphenyl)sulfamoyl]phenyl}-1-(pyridin-3-ylmethyl)urea] | 1 nM | 35 nM |  |
| COc1ccc(F)cc1S(=O)(=O)c1ccc(NC(=O)NCc2cccnc2)cc1 [3-{4-[(5-fluoro-2-methoxybenzene)sulfonyl]phenyl}-1-(pyridin-3-ylmethyl)urea] | 2 nM | 4 nM |  |
| COc1ccc(F)cc1NS(=O)(=O)c1ccc(NC(=O)NCc2cccnc2)cc1 [3-{4-[(5-fluoro-2-methoxyphenyl)sulfamoyl]phenyl]-1-(pyridin-3-ylmethyl)urea] | 1 nM | 33 nM |  |
| Cc1ccc(F)cc1S(=O)(=O)c1ccc(NC(=O)NCc2cccnc2)cc1 [3-{4-[(5-fluoro-2-methylbenzene)sulfonyl]phenyl}-1-(pyridin-3-ylmethyl)urea] | 4 nM | 489 nM |  |
| COc1ccc(C)c(NS(=O)(=O)c2ccc(NC(=O)NCc3cccnc3)cc2)c1 [3-{4-[(5-methoxy-2-methylphenyl)sulfamoyl]phenyl}-1-(pyridin-3-ylmethyl)urea] | 2 nM | 79 nM |  |
| CCN(Cc1ccccc1)S(=O)(=O)c1ccc(NC(=O)NCc2cccnc2)cc1 [3-{4-[benzyl(ethyl)sulfamoyl]phenyl}-1-(pyridin-3-ylmethyl)urea] | 0.9 nM | 7 nM |  |
| CN(Cc1ccccc1)S(=O)(=O)c1ccc(NC(=O)NCc2cccnc2)cc1 [3-{4-[benzyl(methyl)sulfamoyl]phenyl}-1-(pyridin-3-ylmethyl)urea] | 1.1 nM | 107 nM |  |

| Compound | IC50 (NAMPT) | IC50 (A2780 cells; Homo sapiens, A2780, 72 h) | IC50 (A2780 cells) |
| --- | --- | --- | --- |
| CC(C)N(Cc1ccccc1)S(=O)(=O)c1ccc(NC(=O)NCc2cccnc2)cc1 [3-{4-[benzyl(propan-2-yl)sulfamoyl]phenyl}-1-(pyridin-3-ylmethyl)urea] | 2 nM | 26 nM |  |
| CCN(C1CCCCC1)S(=O)(=O)c1ccc(NC(=O)NCc2cccnc2)cc1 [3-{4-[cyclohexyl(ethyl)sulfamoyl]phenyl}-1-(pyridin-3-ylmethyl)urea] | 5 nM | 123 nM |  |
| O=C(NCc1ccc[n+]([O-])c1)Nc1ccc([S+]([O-])c2ccc(Cl)cc2)cc1 (stereo not shown) [3-{[({4-[(4-chlorobenzene)sulfinyl]phenyl}carbamoyl)amino]methyl}pyridin-1-ium-1-olate] | 444 nM |  | 20600 nM |
| O=C(NCc1ccc[n+]([O-])c1)Nc1ccc(S(=O)(=O)c2ccc(Cl)cc2)cc1 [3-{[({4-[(4-chlorobenzene)sulfonyl]phenyl}carbamoyl)amino]methyl}pyridin-1-ium-1-olate] | 728 nM |  | > 30000 nM |
| O=C(NCc1ccc2nccn2c1)Nc1ccc(S(=O)(=O)N2CC3CCC(C2)O3)cc1 [3-{imidazo[1,2-a]pyridin-6-ylmethyl}-1-(4-{8-oxa-3-azabicyclo[3.2.1]octane-3-sulfonyl}phenyl)urea] | 8 nM | 6 nM |  |
| O=C(Nc1cccnc1)c1ccc(S(=O)(=O)c2ccccc2)cc1 [4-(benzenesulfonyl)-N-(pyridin-3-yl)benzamide] | 1890 nM | 2730 nM |  |
| O=C(NCc1cccnc1)c1ccc(S(=O)(=O)c2ccccc2)cc1 [4-(benzenesulfonyl)-N-(pyridin-3-ylmethyl)benzamide] | 80.5 nM | 216 nM |  |
| O=C(Nc1ccncc1)c1ccc(S(=O)(=O)c2ccccc2)cc1 [4-(benzenesulfonyl)-N-(pyridin-4-yl)benzamide] | 651 nM | 1310 nM |  |
| O=C(NCc1ccn2ccnc2c1)c1ccc(S(=O)(=O)c2ccccc2)cc1 [4-(benzenesulfonyl)-N-{imidazo[1,2-a]pyridin-7-ylmethyl}benzamide] | 30.8 nM | 25.9 nM |  |
| O=C(NCc1ccc2nccn2c1)c1ccc(S(=O)(=O)c2ccccc2Cl)cc1 [4-[(2-chlorobenzene)sulfonyl]-N-{imidazo[1,2-a]pyridin-6-ylmethyl}benzamide] | 19.5 nM | 3.92 nM |  |
| O=C(NCc1ccc2nccn2c1)c1ccc(S(=O)(=O)c2cc(F)cc(F)c2)cc1 [4-[(3,5-difluorobenzene)sulfonyl]-N-{imidazo[1,2-a]pyridin-6-ylmethyl}benzamide] | 17.7 nM | 5.71 nM |  |
| O=C(NCc1ccc2nccn2c1)c1ccc(S(=O)(=O)c2cccc(Cl)c2)cc1 [4-[(3-chlorobenzene)sulfonyl]-N-{imidazo[1,2-a]pyridin-6-ylmethyl}benzamide] | 12.1 nM | 6.39 nM |  |
| O=C(NCc1ccc2nccn2c1)c1ccc(S(=O)(=O)Nc2cccc(Cl)c2)cc1 [4-[(3-chlorophenyl)sulfamoyl]-N-{imidazo[1,2-a]pyridin-6-ylmethyl}benzamide] | 138 nM | 7.12 nM |  |
| COc1ccc(Cl)cc1NS(=O)(=O)c1ccc(C(=O)NCCc2cccnc2)cc1 [4-[(5-chloro-2-methoxyphenyl)sulfamoyl]-N-[2-(pyridin-3-yl)ethyl]benzamide] | 4720 nM | 31.2 nM |  |
| COc1ccc(Cl)cc1NS(=O)(=O)c1ccc(C(=O)NCc2ccc3nccn3c2)cc1 [4-[(5-chloro-2-methoxyphenyl)sulfamoyl]-N-{imidazo[1,2-a]pyridin-6-ylmethyl}benzamide] | 2.16 nM | 2.3 nM |  |
| NC(=O)c1ccc(CNC(=O)Nc2ccc(S(=O)(=O)N3CCCCC3)cc2)cn1 [5-[({[4-(piperidine-1-sulfonyl)phenyl]carbamoyl}amino)methyl]pyridine-2-carboxamide] | > 10000 nM | 27500 nM |  |
| CCN(CC)C(=O)[C@H]1CCCN(S(=O)(=O)c2ccc(NC(=O)NCc3cccnc3)cc2)C1 [(3S)-N,N-diethyl-1-[(4-{[(pyridin-3-ylmethyl)carbamoyl]amino}benzene)sulfonyl]piperidine-3-carboxamide] | 6 nM |  | 25 nM |
| CCN(CC)C(=O)c1ccccc1NS(=O)(=O)c1ccc(NC(=O)NCc2cccnc2)cc1 [N,N-diethyl-2-[(4-{[(pyridin-3-ylmethyl)carbamoyl]amino]benzene)sulfonamido]benzamide] | 8 nM |  | 6 nM |
| CCN(CC)C(=O)CN1CCN(S(=O)(=O)c2ccc(NC(=O)NCc3cccnc3)cc2)CC1 [N,N-diethyl-2-{4-[(4-{[(pyridin-3-ylmethyl)carbamoyl]amino}benzene)sulfonyl]piperazin-1-yl}acetamide] | 5 nM | 45 nM |  |
| CCN(CC)C(=O)c1cc(F)cc(S(=O)(=O)c2ccc(NC(=O)NCc3cccnc3)cc2)c1 [N,N-diethyl-3-fluoro-5-[(4-{[(pyridin-3-ylmethyl)carbamoyl]amino[benzene)sulfonyl]benzamide] | 1.2 nM |  | 1.5 nM |
